Experimental data taken from patent US9796671B2, “Aurora kinase inhibitors” (REGENTS OF THE UNIVERSITY OF MINNESOTA, priority 2012, dated 2017).

What was measured:
[1] = test system: MRC-5 normal lung cells; assay: Cytotoxicity (MTS assay); format: cell-based
Procedure: To estimate the cytotoxicity of Compound 1, cells are seeded (8×10^3 cells per well) in 96-well plates and cultured overnight. Cells are fed with fresh medium and treated with different doses of Compound 1. After culturing for various times, the cytotoxicity of Compound 1 is measured using an MTS assay kit (Promega, Madison, Wis.) according to the manufacturer's instructions.
The toxicity of Compound 1 on both MRC-5 normal lung cells and A549 lung cancer cells was then examined.

[2] = test system: A549 cells transfected with Aurora B shRNA; assay: Anchorage-independent growth, Aurora B knockdown cells; format: cell-based; settings: Homo sapiens
Procedure: (§1) Tumor cells are suspended in basal medium Eagle (BME) medium and added to 0.6% agar, with different concentrations of Compound 1 in a base layer and a top layer of 0.3% agar. The cultures are maintained at 37° C. in a 5% CO2 incubator for 1 to 2 weeks and then colonies are counted under a microscope using the Image-Pro Plus software (v.4) program (Media Cybernetics, Silver Spring, Md.).
The effect of knocking down Aurora B expression in A549 cancer cells on the cell's sensitivity to Compound 1 was evaluated. […] Compound 1 (0.5 μM) inhibited anchorage-independent growth of A549 cells transfected with mock shRNA by about 90%.

[3] = test system: HCT116 cells; assay: Anchorage-independent growth (soft agar colony formation); format: cell-based; settings: 0.5 μM
Procedure: FIGS. 3A and 3B. Compounds 1-8 suppress the anchorage-independent growth of HCT116 cells. The asterisk indicates a significant (* p<0.05, ** p<0.01) decrease in colony formation in cells treated with each compound compared with the DMSO treated control group. Two concentrations of each compound, 0.5 μM and 5 μM were tested. […] Compounds 2 and 4 had no effect.
as §1

[4] = test system: histone H3 phosphorylation on Ser10; assay: Histone H3 (Ser10) phosphorylation in lung cancer cells (Western blot); format: cell-based; settings: dose- and time-dependent
Description: (§2) Proteins are resolved by SDS-PAGE and transferred onto polyvinylidene difluoride membranes (Millipore, Mass.), which are blocked with nonfat milk and hybridized with specific primary antibodies. The protein bands are visualized using an enhanced chemiluminescence reagent (GE Healthcare, Pittsburgh, Pa.) after hybridization with a horseradish peroxidase-conjugated secondary antibody.
Phosphorylation of a highly conserved serine residue (Ser10) in histone H3 is thought to be crucial for entry into mitosis.

[5] = biological target: Aurora B (Homo sapiens, UniProt Q96GD4); assay: Aurora B in vitro kinase assay (histone H3 Ser10 phosphorylation, Western blot); format: biochemical
Chain of Aurora B (Q96GD4 whole entry): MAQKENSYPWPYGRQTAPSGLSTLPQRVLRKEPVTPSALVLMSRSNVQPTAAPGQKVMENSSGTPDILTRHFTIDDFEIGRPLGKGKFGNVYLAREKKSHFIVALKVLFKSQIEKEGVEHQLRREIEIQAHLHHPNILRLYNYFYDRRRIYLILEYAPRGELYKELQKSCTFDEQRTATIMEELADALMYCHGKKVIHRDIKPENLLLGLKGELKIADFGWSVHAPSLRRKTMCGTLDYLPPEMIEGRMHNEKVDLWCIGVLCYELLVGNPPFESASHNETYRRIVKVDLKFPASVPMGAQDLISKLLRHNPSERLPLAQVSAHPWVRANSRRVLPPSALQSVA
Procedure: as §2
Reactions are carried out in 1× kinase buffer (25 mM Tris-HCl pH 7.5, 5 mM beta-glycerophosphate, 2 mM dithiothreitol (DTT), 0.1 mM Na3VO4, 10 mM MgCl2 and 5 mM MnCl2) containing 100 μM ATP at 30° C. for 30 minutes. Reactions are stopped and proteins detected by Western blotting.
An in vitro kinase assay was used to determine whether Compound 1 could inhibit Aurora B kinase activity using recombinant Aurora B protein and various concentrations of Compound 1. […] The effect of Compound 1 on Aurora A kinase activity using an in vitro kinase assay was also examined.

[6] = test system: A549 cells; assay: Cell cycle analysis (flow cytometry); format: cell-based, human; settings: A549, 48 hours
Procedure: (§3) Cells are plated in 60-mm plates and treated or not treated with Compound 1 for the indicated time. At each time point, cells are fixed in 70% ethanol and stored at −20° C. for 24 h. After staining, the cell cycle distribution or apoptosis is determined using a BD FACSCalibur Flow Cytometer (BD Biosciences, San Jose, Calif.). Aurora B inhibition leads to failure in cytokinesis and abnormal exit from mitosis, which could result in polyploidy cells, cell cycle arrest, and ultimately apoptosis. The ability to induce polyploidy cells was further examined in A549 cells treated or not treated with Compound 1. […] In addition, Compound 1 treatment for 48 hours caused an increase in the number of A549 and H520 cells occupying the G2/M phase. Moreover, exposure of these cells to Compound 1 for 72 hours induced apoptosis as measured by Annexin V/PI staining. For example, exposure to 5 μM Compound 1 induced 48% or 82% apoptosis in A549 cells and H520 cells, compared to 8% or 38% in untreated control cells, respectively.

[7] = test system: H520 cells; assay: Cell cycle analysis (flow cytometry); format: cell-based, human; settings: H520, 48 hours
Procedure: as §3

[8] = biological target: Akt1 (Homo sapiens, UniProt P31749); assay: Akt1 in vitro kinase assay; format: biochemical
Chain of Akt1 (P31749 whole entry, species assumed): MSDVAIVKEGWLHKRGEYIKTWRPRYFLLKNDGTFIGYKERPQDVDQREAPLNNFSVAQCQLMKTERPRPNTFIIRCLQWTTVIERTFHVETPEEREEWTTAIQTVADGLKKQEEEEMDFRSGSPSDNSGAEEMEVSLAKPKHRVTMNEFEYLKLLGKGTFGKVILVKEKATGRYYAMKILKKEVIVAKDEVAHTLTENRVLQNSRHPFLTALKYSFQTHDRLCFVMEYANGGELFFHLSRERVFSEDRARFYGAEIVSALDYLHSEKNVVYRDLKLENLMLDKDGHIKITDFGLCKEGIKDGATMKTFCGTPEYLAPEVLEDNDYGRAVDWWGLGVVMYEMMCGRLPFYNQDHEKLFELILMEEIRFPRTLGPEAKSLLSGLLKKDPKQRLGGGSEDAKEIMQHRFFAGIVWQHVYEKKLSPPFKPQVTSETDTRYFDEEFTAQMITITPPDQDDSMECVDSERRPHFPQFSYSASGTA
Procedure: According to the kinase profiler assay results, Akt2 also might be a potential target of Compound 1. An Akt1 and Akt2 in vitro kinase assays was performed.

[9] = test system: H1650 cells; assay: Anchorage-independent growth of human lung cancer cells; format: cell-based
Procedure: as §1
(§4) The effect of Compound 1 treatment on anchorage-independent growth of human lung cancer cells, including A549, H1650, and H520 cells was then examined. […] Compound 1 at 0.5 or 1 μM caused a decrease of more than 80% or 90% compared to control in all cell lines detected.

[10] = test system: A549 cells; assay: as above; format: cell-based
Procedure: as §1, §4

[11] = test system: H520 cells; assay: as above; format: cell-based
Procedure: as §1, §4

O=C(/C=C/c1ccc2c(c1)OCO2)/C=C1/C(=O)Nc2ccccc21 [Compound 1] was tested, and the “cytotoxic effects on MRC-5 normal lung cells” value ([1]; 1 μM or less) was “no obvious cytotoxic effects”, the “toxicity to MRC-5 normal cells” value ([1]; 5 μM, 48 hours) was “not” and the “toxicity on MRC-5 normal lung cells” value ([1]; concentrations greater than 10 μM) was “substantial toxicity”. For the same compound, the inhibition at 0.5 µM [2] was < 40%, the “anchorage-independent growth of HCT116 cells (colony formation)” value [3] was “best efficiency” and the “histone H3 phosphorylation on Ser10 in cancer cells” value [4] was “suppressed”. For the same compound, the inhibition at 0.05 µM ([5]; 0.05 μM) was 22%, the inhibition at 0.1 µM ([5]; 0.1 μM) was 50% and the “histone H3 (Ser10) phosphorylation band by Aurora B” value ([5]; 1 μM) was “only a weak histone H (Ser10) band”. For the same compound, the “concentration required for Aurora B inhibition” value ([5]; discussion statement) was ≤ 1 µM, the “number of cells occupying the G2/M phase” value [6] was “increase” and the “number of cells occupying the G2/M phase” value [7] was “increase”. The inhibition at 5 µM ([8]; 5 μM) was 32%, the “concentration inhibiting Akt1 kinase activity in vitro” value ([8]; discussion statement) was ≥ 1 µM and the “decrease of anchorage-independent growth compared to control” value (“decrease of anchorage-independent growth” below) ([9]; H1650, 0.5 μM) was “more than 80%”. The “decrease of anchorage-independent growth” value ([9]; H1650, 1 μM) was > 90%, the “decrease of anchorage-independent growth” value ([10]; A549, 0.5 μM) was “more than 80%” and the “decrease of anchorage-independent growth” value ([10]; A549, 1 μM) was > 90%. The “decrease of anchorage-independent growth” value ([11]; H520, 0.5 μM) was “more than 80%” and the “decrease of anchorage-independent growth” value ([11]; H520, 1 μM) was > 90%.
